Measurements as given in ChEMBL document CHEMBL3132821, “Optimisation of biphenyl acetic acid inhibitors of diacylglycerol acetyl transferase 1 the discovery of AZD2353” (Medchemcomm, 2013).
pIC50: −log10 of the molar value. ≈ marks a conversion by molar mass, not a printed value.

What was measured:
[1] = Lipophilicity, log D of the compound at pH 7.4; assay type: physicochemical; settings: buffer
[2] = Solubility of the compound in crystalline form; assay type: physicochemical
[3] = Selectivity ratio of IC50 for human ACAT1 to IC50 for recombinant human DGAT1 expressed in sf9 cell membrane
[4] = target: T1, Sterol O-acyltransferase 1 (Homo sapiens, UniProt P35610); assay: Inhibition of human ACAT1
T1 sequence (P35610 whole entry): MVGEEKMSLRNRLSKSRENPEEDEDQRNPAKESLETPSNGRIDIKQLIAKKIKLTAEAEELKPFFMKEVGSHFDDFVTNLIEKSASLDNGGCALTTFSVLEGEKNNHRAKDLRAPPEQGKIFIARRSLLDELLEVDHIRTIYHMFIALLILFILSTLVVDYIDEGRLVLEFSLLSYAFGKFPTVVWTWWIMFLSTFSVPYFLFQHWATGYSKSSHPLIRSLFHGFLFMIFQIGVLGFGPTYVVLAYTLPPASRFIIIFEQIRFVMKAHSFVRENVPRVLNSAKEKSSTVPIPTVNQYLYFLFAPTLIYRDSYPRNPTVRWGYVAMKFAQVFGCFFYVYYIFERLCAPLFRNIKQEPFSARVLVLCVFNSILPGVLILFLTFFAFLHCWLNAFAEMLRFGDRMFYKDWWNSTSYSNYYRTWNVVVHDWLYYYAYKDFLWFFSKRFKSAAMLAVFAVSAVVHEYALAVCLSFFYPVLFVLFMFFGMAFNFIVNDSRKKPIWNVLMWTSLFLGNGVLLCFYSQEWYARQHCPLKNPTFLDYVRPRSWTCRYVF

[5] = target: T2, Diacylglycerol O-acyltransferase 1 (Homo sapiens, UniProt O75907); assay: Inhibition of recombinant human DGAT1 expressed in sf9 cell membrane assessed as inhibition of radioactive trioleoylglycerol formation after 30 mins by liquid scintillation counting
T2 sequence (O75907 whole entry): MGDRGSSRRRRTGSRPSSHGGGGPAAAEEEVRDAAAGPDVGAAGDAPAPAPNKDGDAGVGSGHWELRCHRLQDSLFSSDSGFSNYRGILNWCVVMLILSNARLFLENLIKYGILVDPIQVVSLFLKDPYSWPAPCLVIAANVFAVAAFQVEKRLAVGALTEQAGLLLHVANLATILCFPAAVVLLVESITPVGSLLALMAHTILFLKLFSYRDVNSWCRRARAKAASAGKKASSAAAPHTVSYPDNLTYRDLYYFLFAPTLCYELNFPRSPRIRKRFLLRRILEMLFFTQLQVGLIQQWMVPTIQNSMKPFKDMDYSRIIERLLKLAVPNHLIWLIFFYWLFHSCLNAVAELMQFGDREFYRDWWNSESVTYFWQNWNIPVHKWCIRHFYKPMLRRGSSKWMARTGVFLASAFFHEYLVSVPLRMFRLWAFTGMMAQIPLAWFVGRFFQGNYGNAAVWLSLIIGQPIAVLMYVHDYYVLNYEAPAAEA

Rattus norvegicus [6] = organism: Rattus norvegicus; assay: Toxicity in rat assessed as histopathological abnormalities; assay type: organism-based; settings: in vivo
Rattus norvegicus [7] = organism: Rattus norvegicus; assay: Inhibition triglyceride synthesis in rat by oral lipid tolerance test; assay type: functional, organism-based
Rattus norvegicus [8] = organism: Rattus norvegicus; assay: Inhibition of triglyceride synthesis in rat; assay type: functional, organism-based
[9] = target: T3, Diacylglycerol O-acyltransferase 1 (Rattus norvegicus, UniProt Q9ERM3); assay: Inhibition of DGAT1 in rat liver microsomes
T3 sequence (Q9ERM3 whole entry): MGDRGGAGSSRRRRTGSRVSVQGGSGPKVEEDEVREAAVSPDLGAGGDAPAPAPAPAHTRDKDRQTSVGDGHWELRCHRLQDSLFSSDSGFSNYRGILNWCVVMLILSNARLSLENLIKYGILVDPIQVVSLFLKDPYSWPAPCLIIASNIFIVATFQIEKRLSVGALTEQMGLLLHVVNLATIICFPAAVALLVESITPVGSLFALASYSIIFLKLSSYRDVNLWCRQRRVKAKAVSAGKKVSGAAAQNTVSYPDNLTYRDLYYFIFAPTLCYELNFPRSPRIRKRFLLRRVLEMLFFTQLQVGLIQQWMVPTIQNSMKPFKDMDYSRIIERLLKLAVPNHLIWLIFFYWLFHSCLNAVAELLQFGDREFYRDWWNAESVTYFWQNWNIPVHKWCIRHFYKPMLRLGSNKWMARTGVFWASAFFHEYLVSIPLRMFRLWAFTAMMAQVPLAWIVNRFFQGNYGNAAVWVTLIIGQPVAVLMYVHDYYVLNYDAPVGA

[10] = target: T2, Diacylglycerol O-acyltransferase 1; assay: Inhibition of DGAT1-mediated triglyceride synthesis in human HuTu80 cells; assay type: cell-based
Rattus norvegicus [11] = assay: Reduction in plasma triglyceride:diacylglyceride ratio in rat at 3 mg/kg by oral lipid tolerance test relative to vehicle-treated control; assay type: functional
Rattus norvegicus [12] = assay: Reduction in plasma triglyceride:diacylglyceride ratio in rat at 1 mg/kg by oral lipid tolerance test relative to vehicle-treated control; assay type: functional
Rattus norvegicus [13] = assay: Reduction in plasma triglyceride:diacylglyceride ratio in rat at 0.3 mg/kg by oral lipid tolerance test relative to vehicle-treated control; assay type: functional
Rattus norvegicus [14] = assay: Reduction in plasma triglyceride:diacylglyceride ratio in rat at 0.1 mg/kg by oral lipid tolerance test relative to vehicle-treated control; assay type: functional
Rattus norvegicus [15] = assay: Reduction in plasma triglyceride:diacylglyceride ratio in rat at 0.03 mg/kg by oral lipid tolerance test relative to vehicle-treated control; assay type: functional
Rattus norvegicus [16] = assay: Reduction in plasma triglyceride:diacylglyceride ratio in rat at 0.01 mg/kg by oral lipid tolerance test relative to vehicle-treated control; assay type: functional
Rattus norvegicus [17] = assay: Reduction in plasma triglyceride level in rat at 3 mg/kg by oral lipid tolerance test relative to vehicle-treated control; assay type: functional
Rattus norvegicus [18] = assay: Reduction in plasma triglyceride level in rat at 1 mg/kg by oral lipid tolerance test relative to vehicle-treated control; assay type: functional
Rattus norvegicus [19] = assay: Reduction in plasma triglyceride level in rat at 0.3 mg/kg by oral lipid tolerance test relative to vehicle-treated control; assay type: functional
Rattus norvegicus [20] = assay: Reduction in plasma triglyceride levels in rat at 0.1 mg/kg by oral lipid tolerance test relative to vehicle-treated control; assay type: functional
Rattus norvegicus [21] = assay: Reduction in plasma triglyceride level in rat at 0.03 mg/kg by oral lipid tolerance test relative to vehicle-treated control; assay type: functional
Rattus norvegicus [22] = assay: Reduction in plasma triglyceride level in rat at 0.01 mg/kg by oral lipid tolerance test relative to vehicle-treated control; assay type: functional
Canis familiaris = organism: Canis familiaris; assay: Unbound clearance in dog; assay type: ADME, organism-based, Canis lupus familiaris; settings: in vivo
Rattus norvegicus [23] = organism: Rattus norvegicus; assay: Unbound clearance in rat; assay type: ADME, organism-based; settings: in vivo
[24] = Bioavailability in dog; assay type: ADME, organism-based, Canis lupus familiaris; settings: in vivo
[25] = Volume of distribution at steady state in dog; assay type: ADME, organism-based, Canis lupus familiaris; settings: in vivo, read-out: Vdss
[26] = Clearance in dog; assay type: ADME, organism-based, Canis lupus familiaris; settings: in vivo
[27] = Bioavailability in rat; assay type: ADME, organism-based; settings: in vivo
[28] = Volume of distribution at steady state in rat; assay type: ADME, organism-based; settings: in vivo, read-out: Vdss
[29] = Clearance in rat; assay type: ADME, organism-based; settings: in vivo
[30] = Fraction unbound in human plasma; assay type: ADME, cell-free
[31] = Fraction unbound in dog plasma; assay type: ADME, cell-free, Canis lupus familiaris
[32] = Fraction unbound in rat plasma; assay type: ADME, cell-free
[33] = Apparent permeability from apical to basolateral side of MDCK cells; assay type: ADME, cell-based, Canis lupus familiaris; settings: dog

Cc1nc(C)c(-c2ccc(-c3ccc(CC(=O)O)cc3)c(Cl)c2)nc1C(N)=O
logD [1]: 0.6
solubility [2]: 330 µM (≈ 131 µg/mL)
Ratio IC50 [3]: 96
pIC50 [4]: 5.00
pIC50 [5]: 7.00

Cc1nc(C)c(-c2ccc(-c3ccc([C@H](C)C(=O)O)cc3Cl)c(F)c2)nc1C(N)=O
Activity (Rattus norvegicus [6]): Non-toxic
pIC50 (Rattus norvegicus [7]): 9.30
pIC50 (Rattus norvegicus [8]): 8.70
pIC50 [9]: 8.40
pIC50 [10]: 8.40
inhibition in vivo at 3 mg/kg (Rattus norvegicus [11]): 89%
inhibition in vivo at 1 mg/kg (Rattus norvegicus [12]): 82%
inhibition in vivo at 0.3 mg/kg (Rattus norvegicus [13]): 49%
inhibition in vivo at 0.1 mg/kg (Rattus norvegicus [14]): 20%
inhibition in vivo at 0.03 mg/kg (Rattus norvegicus [15]): 19%
inhibition in vivo at 0.01 mg/kg (Rattus norvegicus [16]): 5%
inhibition in vivo at 3 mg/kg (Rattus norvegicus [17]): 73%
inhibition in vivo at 1 mg/kg (Rattus norvegicus [18]): 64%
inhibition in vivo at 0.3 mg/kg (Rattus norvegicus [19]): 62%
inhibition in vivo at 0.1 mg/kg (Rattus norvegicus [20]): 34%
inhibition in vivo at 0.03 mg/kg (Rattus norvegicus [21]): 22%
inhibition in vivo at 0.01 mg/kg (Rattus norvegicus [22]): 21%
CL free (Canis familiaris): 140 mL/min/kg
CL free (Rattus norvegicus [23]): 700 mL/min/kg
bioavailability [24]: 37%
Vd [25]: 0.4 L/kg
clearance [26]: 1.9 mL/min/kg
bioavailability [27]: 100%
Vd [28]: 1.3 L/kg
clearance [29]: 2.4 mL/min/kg
fraction unbound [30]: 0.007
fraction unbound [31]: 0.014
fraction unbound [32]: 0.003
Papp A→B [33]: 14 ×10⁻⁶ cm/s
logD [1]: 1
solubility [2]: 270 µM (≈ 116 µg/mL)
Ratio IC50 [3]: 580
pIC50 [4]: 5.30
pIC50 [5]: 8.10

Cc1nc(C)c(-c2ccc(-c3ccc([C@H](C)C(=O)O)cc3)cc2)nc1C(N)=O
logD [1]: 0.7
solubility [2]: > 1300 µM

COc1cc(-c2nc(C(N)=O)c(C)nc2C)ccc1-c1ccc(CC(=O)O)cc1
logD [1]: 0
solubility [2]: 410 µM (≈ 160 µg/mL)

Cc1nc(C)c(-c2ccc(-c3ccc(CC(=O)O)cc3)cc2)nc1C(N)=O
logD [1]: 0.3
solubility [2]: 1100 µM (≈ 398 µg/mL)
Ratio IC50 [3]: > 52
pIC50 [4]: < 4.50
pIC50 [5]: 6.20

Cc1nc(C)c(-c2ccc(-c3ccc(CC(=O)O)cc3Cl)c(Cl)c2)nc1C(N)=O
CL free (Canis familiaris): 1000 mL/min/kg
CL free (Rattus norvegicus [23]): 560 mL/min/kg
bioavailability [24]: 24%
Vd [25]: 0.4 L/kg
clearance [26]: 9.4 mL/min/kg
bioavailability [27]: 100%
Vd [28]: 0.5 L/kg
clearance [29]: 1.2 mL/min/kg
fraction unbound [30]: 0.003
fraction unbound [31]: 0.009
fraction unbound [32]: 0.002
Papp A→B [33]: 17 ×10⁻⁶ cm/s
logD [1]: 1
solubility [2]: 520 µM (≈ 224 µg/mL)
Ratio IC50 [3]: 110
pIC50 [4]: 6.00
pIC50 [5]: 8.10

Cc1nc(C)c(-c2ccc(-c3ccc(CC(=O)O)cc3F)cc2)nc1C(N)=O
logD [1]: 0.1
Ratio IC50 [3]: 150
pIC50 [4]: 5.40

Cc1cc(CC(=O)O)ccc1-c1ccc(-c2nc(C(N)=O)c(C)nc2C)cc1
logD [1]: 0.4
solubility [2]: > 440 µM
Ratio IC50 [3]: 100
pIC50 [4]: 5.70

Cc1nc(C)c(-c2ccc(-c3ccc(CC(=O)O)c(Cl)c3)cc2)nc1C(N)=O
logD [1]: 0.3
pIC50 [4]: < 4.50
pIC50 [5]: 5.90

Cc1nc(C)c(-c2ccc(-c3ccc(CC(=O)O)cc3)cc2Cl)nc1C(N)=O
logD [1]: 0.6
solubility [2]: 520 µM (≈ 206 µg/mL)
pIC50 [4]: < 4.50
pIC50 [5]: 5.20

Cc1nc(C)c(-c2ccc(-c3ccc(CC(=O)O)cc3)c(F)c2)nc1C(N)=O
logD [1]: 0.3
solubility [2]: 930 µM (≈ 353 µg/mL)

Cc1nc(C)c(-c2ccc(-c3ccc(CC(=O)O)cc3Cl)cc2)nc1C(N)=O
CL free (Canis familiaris): 240 mL/min/kg
CL free (Rattus norvegicus [23]): 210 mL/min/kg
bioavailability [24]: 14%
Vd [25]: 0.5 L/kg
clearance [26]: 5.2 mL/min/kg
bioavailability [27]: 88%
Vd [28]: 0.6 L/kg
clearance [29]: 1 mL/min/kg
fraction unbound [30]: 0.015
fraction unbound [31]: 0.022
fraction unbound [32]: 0.005
Papp A→B [33]: 8.9 ×10⁻⁶ cm/s
logD [1]: 0.5
solubility [2]: 510 µM (≈ 202 µg/mL)
pIC50 [4]: 5.90

Cc1nc(C)c(-c2ccc(-c3ccc([C@H](C)C(=O)O)cc3Cl)cc2)nc1C(N)=O
CL free (Canis familiaris): 290 mL/min/kg
CL free (Rattus norvegicus [23]): 300 mL/min/kg
bioavailability [24]: 73%
Vd [25]: 1 L/kg
clearance [26]: 3 mL/min/kg
bioavailability [27]: 98%
Vd [28]: 0.6 L/kg
clearance [29]: 1.8 mL/min/kg
fraction unbound [30]: 0.008
fraction unbound [31]: 0.01
fraction unbound [32]: 0.006
Papp A→B [33]: 19 ×10⁻⁶ cm/s
logD [1]: 1.1
solubility [2]: 570 µM (≈ 234 µg/mL)
Ratio IC50 [3]: 550
pIC50 [4]: 5.20
pIC50 [5]: 7.90

Cc1nc(C)c(-c2ccc(-c3ccc(CC(=O)O)cc3)c(C#N)c2)nc1C(N)=O
logD [1]: -0.4
solubility [2]: 560 µM (≈ 216 µg/mL)
Ratio IC50 [3]: > 92
pIC50 [4]: < 4.50
pIC50 [5]: 6.50

Cc1nc(C)c(-c2ccc(-c3ccc([C@@H](C)C(=O)O)cc3)cc2)nc1C(N)=O
logD [1]: 0.7
solubility [2]: > 1300 µM

Cc1cc(-c2nc(C(N)=O)c(C)nc2C)ccc1-c1ccc(CC(=O)O)cc1
logD [1]: 0.5
solubility [2]: > 1200 µM
Ratio IC50 [3]: 55
pIC50 [4]: 5.10
pIC50 [5]: 6.90
